Data: patent publication US20250295646A1, “METHODS OF USE OF T-TYPE CALCIUM CHANNEL MODULATORS” (Praxis Precision Medicines, Inc., priority 2022, published 2025)

What was measured:
[1] = system: adult patients with essential tremor; test: Essential tremor trial Example 16 Part B open-label titration phase: TETRAS, mADL, ADL efficacy; assay type: in vivo, human; design: reduction in upper limb tremor amplitude / LS mean reduction in upper limb tremor amplitude / reduction in combined upper limb tremor amplitude: concentration or dose not given beside the values; conditions: for TETRAS ADL Score CFB LS Mean / TETRAS CULS Score CFB LS Mean / TETRAS PS Item 6: Archimedes Spiral (Left) Score CFB LS Mean / TETRAS PS Item 6: Archimedes Spiral (Right) Score CFB LS Mean / TETRAS PS Item 7: Handwriting Score CFB LS Mean / TETRAS PSTS Score CFB LS Mean / TETRAS ULS Score CFB LS Mean / TETRAS mADL (TETRAS modified total score) Score CFB LS Mean / TETRAS ADL CTA LS Mean % / TETRAS CULS CTA LS Mean % / TETRAS PS Item 6: Archimedes Spiral (Left) CTA LS Mean % / TETRAS PS Item 6: Archimedes Spiral (Right) CTA LS Mean % / TETRAS PS Item 7: Handwriting CTA LS Mean % / TETRAS PSTS CTA LS Mean % / TETRAS ULS CTA LS Mean % / TETRAS mADL CTA LS Mean %: Part B - OLT, FAS; for TETRAS ADL Score CFB LS Mean / TETRAS CULS Score CFB LS Mean / TETRAS PS Item 6: Archimedes Spiral (Left) Score CFB LS Mean / TETRAS PS Item 6: Archimedes Spiral (Right) Score CFB LS Mean / TETRAS PS Item 7: Handwriting Score CFB LS Mean / TETRAS PSTS Score CFB LS Mean / TETRAS ULS Score CFB LS Mean / TETRAS mADL (TETRAS modified total score) Score CFB LS Mean: change from pre-dose baseline; for TETRAS ADL CTA LS Mean % / TETRAS CULS CTA LS Mean % / TETRAS PS Item 6: Archimedes Spiral (Left) CTA LS Mean % / TETRAS PS Item 6: Archimedes Spiral (Right) CTA LS Mean % / TETRAS PS Item 7: Handwriting CTA LS Mean % / TETRAS PSTS CTA LS Mean % / TETRAS ULS CTA LS Mean % / TETRAS mADL CTA LS Mean %: from pre-dose baseline; for TETRAS ADL score, LS mean change from pre-dose baseline / TETRAS combined upper limb score, LS mean change from pre-dose baseline / TETRAS upper limb score, LS mean change from pre-dose baseline / mADL score, LS mean change from pre-dose baseline / reduction in combined upper limb tremor amplitude / reduction in upper limb tremor amplitude / ADL, LS mean change from pre-dose baseline / LS mean reduction in upper limb tremor amplitude / mADL, LS mean change from pre-dose baseline: Part B OLT
Description: A two part trial (Part A and Part B as described below) was conducted to study the efficacy, safety, tolerability, and pharmacokinetics of the compound of formula (I) in adult patients with essential tremor (ET).
Participants were males and females ages 18 and older with a clinical diagnosis of ET. Participants who have a history of any other medical, neurological, or psychiatric condition that may explain or cause tremor were excluded. Participants who have previously received treatment with formula (I) in any clinical trial (including Part A of the current trial for participants enrolling in Part B) were also excluded.
In Part B, an open label titration phase and a randomized, double-blind, placebo-controlled trial was conducted. […] During the withdrawal phase, patients either continued receiving formula (I) at their current dose or switched to placebo, depending on the randomization, for 14 days (Day 43 to Day 56).

[2] = system: adult patients with essential tremor; test: Example 16: Patient Global Impression of Change (PGI-C); assay type: in vivo, human; conditions: for participants with PGI-C score minimally improved: Part A; for participants with PGI-C much improved / participants with PGI-C score reflecting no change in symptoms: Part B OLT
Description: Patients were scheduled for Safety Follow-up on Day 70 (±1 day) in the clinic for the final clinical trial assessment.

[3] = Within-participant escalating dose trial Part A (5-20 mg): pharmacokinetics; assay type: in vivo, human; conditions: single 5 mg dose, healthy volunteers
Description: In Part A, an open label trial was conducted.

clinical = conditions: both, human, plasma, oral, 120 mg
Description: Each participant completed 3 study periods: Screening, Treatment period (12 or 31 days), and Safety follow-up.
Participants were healthy males and females between the ages of 18 and 55 years old.
In Part B, a randomized controlled trial was conducted.

[4] = Day 7, subset with baseline upper limb scores ≥10
[5] = Day 21, subset with baseline upper limb scores ≥10
[6] = Part B RWD (RWAS), Day 56, n 6, change from randomization baseline

## CC(C)(C)NC(=O)CN1CCC(CNC(=O)c2cc(F)cc(Cl)c2)CC1 [compound of formula (I), N-((1-(2-(tert-butylamino)-2-oxoethyl)piperidin-4-yl)methyl)-3-chloro-5-fluorobenzamide]
[1]; Day 7
  TETRAS ADL Score CFB LS Mean: −1.986
  TETRAS CULS Score CFB LS Mean: −0.909
  TETRAS PS Item 6: Archimedes Spiral (Left) Score CFB LS Mean: 0.221
  TETRAS PS Item 6: Archimedes Spiral (Right) Score CFB LS Mean: 0.006
  TETRAS PS Item 7: Handwriting Score CFB LS Mean: −0.019
  TETRAS PSTS Score CFB LS Mean: −1.253
  TETRAS ULS Score CFB LS Mean: −0.967
  TETRAS mADL (TETRAS modified total score) Score CFB LS Mean: −2.862
  TETRAS ADL CTA LS Mean %: −7.29%
  TETRAS CULS CTA LS Mean %: −9.1%
  TETRAS PS Item 6: Archimedes Spiral (Left) CTA LS Mean %: 22.4%
  TETRAS PS Item 6: Archimedes Spiral (Right) CTA LS Mean %: 0.6%
  TETRAS PS Item 7: Handwriting CTA LS Mean %: −2.2%
  TETRAS PSTS CTA LS Mean %: −8.6%
  TETRAS ULS CTA LS Mean %: −16.9%
  TETRAS mADL CTA LS Mean %: −18.49%
  TETRAS ADL score, LS mean change from pre-dose baseline: −1.986
  TETRAS combined upper limb score, LS mean change from pre-dose baseline: −0.909
  TETRAS upper limb score, LS mean change from pre-dose baseline: −0.967
  mADL score, LS mean change from pre-dose baseline: −2.862
  reduction in combined upper limb tremor amplitude: 9.1%
  reduction in upper limb tremor amplitude: 16.9%
[1]; Day 21
  TETRAS ADL Score CFB LS Mean: −3.475
  TETRAS CULS Score CFB LS Mean: −1.320
  TETRAS PS Item 6: Archimedes Spiral (Left) Score CFB LS Mean: −0.012
  TETRAS PS Item 6: Archimedes Spiral (Right) Score CFB LS Mean: −0.240
  TETRAS PS Item 7: Handwriting Score CFB LS Mean: 0.107
  TETRAS PSTS Score CFB LS Mean: −1.449
  TETRAS ULS Score CFB LS Mean: −1.143
  TETRAS mADL (TETRAS modified total score) Score CFB LS Mean: −2.812
  TETRAS ADL CTA LS Mean %: −12.02%
  TETRAS CULS CTA LS Mean %: −12.9%
  TETRAS PS Item 6: Archimedes Spiral (Left) CTA LS Mean %: −1.3%
  TETRAS PS Item 6: Archimedes Spiral (Right) CTA LS Mean %: −24.2%
  TETRAS PS Item 7: Handwriting CTA LS Mean %: 11.5%
  TETRAS PSTS CTA LS Mean %: −9.9%
  TETRAS ULS CTA LS Mean %: −19.7%
  TETRAS mADL CTA LS Mean %: −14.31%
  TETRAS ADL score, LS mean change from pre-dose baseline: −3.475
  TETRAS combined upper limb score, LS mean change from pre-dose baseline: −1.320
  TETRAS upper limb score, LS mean change from pre-dose baseline: −1.143
  mADL score, LS mean change from pre-dose baseline: −2.812
  reduction in combined upper limb tremor amplitude: 12.9%
  reduction in upper limb tremor amplitude: 19.7%
[1]; Day 42, 6 hours post-dose
  TETRAS ADL Score CFB LS Mean: −8.207
  TETRAS CULS Score CFB LS Mean: −1.882
  TETRAS PS Item 6: Archimedes Spiral (Left) Score CFB LS Mean: −0.072
  TETRAS PS Item 6: Archimedes Spiral (Right) Score CFB LS Mean: −0.239
  TETRAS PS Item 7: Handwriting Score CFB LS Mean: −0.054
  TETRAS PSTS Score CFB LS Mean: −2.771
  TETRAS ULS Score CFB LS Mean: −2.090
  TETRAS mADL (TETRAS modified total score) Score CFB LS Mean: −6.669
  TETRAS ADL CTA LS Mean %: −29.59%
  TETRAS CULS CTA LS Mean %: −17.9%
  TETRAS PS Item 6: Archimedes Spiral (Left) CTA LS Mean %: −8.0%
  TETRAS PS Item 6: Archimedes Spiral (Right) CTA LS Mean %: −24.1%
  TETRAS PS Item 7: Handwriting CTA LS Mean %: −6.0%
  TETRAS PSTS CTA LS Mean %: −18.1%
  TETRAS ULS CTA LS Mean %: −33.0%
  TETRAS mADL CTA LS Mean %: −42.04%
[1]; [4]
  ADL, LS mean change from pre-dose baseline: −2.222
  LS mean reduction in upper limb tremor amplitude: 22.9%
  mADL, LS mean change from pre-dose baseline: −3.011
[1]; [5]
  ADL, LS mean change from pre-dose baseline: −4.444
  LS mean reduction in upper limb tremor amplitude: 26.7%
  mADL, LS mean change from pre-dose baseline: −3.773
[1]; Day 42
  TETRAS ADL score, LS mean change from pre-dose baseline: −8.207
  TETRAS combined upper limb score, LS mean change from pre-dose baseline: −1.882
  TETRAS upper limb score, LS mean change from pre-dose baseline: −2.090
  mADL score, LS mean change from pre-dose baseline: −6.669
  reduction in combined upper limb tremor amplitude: 17.9%
  reduction in upper limb tremor amplitude: 33.0%
[2]; Part A (FAS), Day 7, n 6
  PGI-C Score 1 very much improved: 0 n (%)
  PGI-C Score 2 Much improved: 1 n (%)
  PGI-C Score 3 minimally improved: 2 (33.3) n (%)
  PGI-C Score 4 no change: 2 (33.3) n (%)
  PGI-C Score 5 minimally worse: 0 n (%)
  PGI-C Score 6 much worse: 1 (16.7) n (%)
  PGI-C Score 7 very much worse: 0 n (%)
[2]; Part A (FAS), Day 14, n 6
  PGI-C Score 1 very much improved: 0 n (%)
  PGI-C Score 2 Much improved: 1 n (%)
  PGI-C Score 3 minimally improved: 5 (83.3) n (%)
  PGI-C Score 4 no change: 0 n (%)
  PGI-C Score 5 minimally worse: 0 n (%)
  PGI-C Score 6 much worse: 0 n (%)
  PGI-C Score 7 very much worse: 0 n (%)
[2]; Day 7
  participants with PGI-C score minimally improved: 33.3%
  participants with PGI-C much improved: 7.7%
  participants with PGI-C score reflecting no change in symptoms: 53.8%
[2]; Day 14
  participants with PGI-C score minimally improved: 83.3%
[2]; Part B OLT (FAS), Day 7, n 13
  PGI-C Score 1 very much improved: 0 n (%)
  PGI-C Score 2 Much improved: 1 n (%)
  PGI-C Score 3 minimally improved: 5 (38.5) n (%)
  PGI-C Score 4 no change: 7 (53.8) n (%)
  PGI-C Score 5 minimally worse: 0 n (%)
  PGI-C Score 6 much worse: 0 n (%)
  PGI-C Score 7 very much worse: 0 n (%)
[2]; Part B OLT (FAS), Day 21, n 12
  PGI-C Score 1 very much improved: 0 n (%)
  PGI-C Score 2 Much improved: 1 n (%)
  PGI-C Score 3 minimally improved: 5 (41.7) n (%)
  PGI-C Score 4 no change: 6 (50.0) n (%)
  PGI-C Score 5 minimally worse: 0 n (%)
  PGI-C Score 6 much worse: 0 n (%)
  PGI-C Score 7 very much worse: 0 n (%)
[2]; Part B OLT (FAS), Day 42, n 11
  PGI-C Score 1 very much improved: 0 n (%)
  PGI-C Score 2 Much improved: 3 n (%)
  PGI-C Score 3 minimally improved: 4 (36.4) n (%)
  PGI-C Score 4 no change: 4 (36.4) n (%)
  PGI-C Score 5 minimally worse: 0 n (%)
  PGI-C Score 6 much worse: 0 n (%)
  PGI-C Score 7 very much worse: 0 n (%)
[2]; Day 42
  participants with PGI-C much improved: 27.3%
  participants with PGI-C score reflecting no change in symptoms: 36.4%
[2]; [6]
  PGI-C Score 1 very much improved: 0 n (%)
  PGI-C Score 2 Much improved: 0 n (%)
  PGI-C Score 3 minimally improved: 2 (33.3) n (%)
  PGI-C Score 4 no change: 3 (50.0) n (%)
  PGI-C Score 5 minimally worse: 0 n (%)
  PGI-C Score 6 much worse: 0 n (%)
  PGI-C Score 7 very much worse: 1 (16.7) n (%)
[3]
  time by which plasma concentrations were quantifiable: ≤ 0.50 h
clinical
  AUC: ≥ 4650 ng·h/mL
  Cmax: ≥ 390 ng/mL
